Data set [1] has as its system AR-expressing PCa cell lines (LNCaP, C4-2, CWR22R). Briefly: Toxicity to AR-expressing PCa cell lines (colony formation / dose-dependent growth inhibition). It counts as cell-based, human. The procedure: Cell Colony Assay: Cells were plated in 24-well plates at a density allowing 6-7 days of exponential growth before confluency. Medium and compound was replaced every 48 hours to minimize the effect of potential compound instability. After 7 days of incubation in the presence of compound, cells were fixed and stained with methylene blue, followed by extraction of the stain with 1% SDS and spectrophotometry at 650 nm. Each assay was run in triplicate and the difference between control and compound-treated wells was determined using Student's t-test.
Dose-dependent inhibition of cell growth: Cells were plated at 1×10^3 cells per well in 96-well plates. Compounds were added in a dose range from 1 to 20000 nM in two-fold increments. Each dose was tested in triplicate. Controls were 0.1% DMSO (no effect on cell viability) and 50 μM 9-aminoacridine (complete cell death). Cells were incubated for 6 days and then fixed and stained with methylene blue, followed by extraction of the stain with 1% SDS and spectrophotometry at 650 nm. The assay was run two times and, based on the results, the inhibitory concentration of compound suppressing cell growth by 50% as compared to DMSO (IC50) was calculated by the sigmoid approximation method using CalcuSyn software (Biosoft, Chembridge, UK). Confidence intervals were calculated for each sigmoid.
This Example provides a description of the effect of the selected compounds on the growth of PCa cells. To test the toxicity of the identified AR inhibitors towards cells of different origins, we performed colony formation assays using a single dose of each compound (10 μM) on several PCa (LNCaP, C4-2, CWR22R and DU145) and two non-PCa (HT1080 and HeLa) cell lines (FIG. 2A). […] These compounds were not weaker inhibitors of AR transcriptional activity in CWR22R or C4-2 cells than compounds that inhibited growth of the cells. […]

Data set [2] deals with AR protein in CWR22R cells. Briefly: Western blot of AR protein levels. It counts as cell-based, human. To be noted: 10 mM of hits for 36 hrs. As for the experimental part: FIGS. 3A-3D depict data showing a that reduction of AR protein levels is associated with toxicity of the selected AR inhibitor hits to PCa cells. […] is a photographic representation of Western blotting of lysates from CWR22R cells treated with […] of the indicated hits for 36 hrs. […] GAPDH antibody was used to control for protein loading. FIG. 3B provides a graphical representation of data showing that, unlike parental CWR22R cells, a clone selected in the presence of c52 (c52R) is resistant to the effects of c52. AR protein expression in the c52R clone of CWR22R is not reduced by c52 treatment. Western blotting of parental and c52-resistant CWR22R cells with or without c52 treatment (10 μM for 36 hrs). FIG. 3C provides a graphical representation of data from analyzing cell viability by methylene blue staining 4 days after compound addition. Error bars—standard deviation between triplicates within experiment. FIG. 3D provides a graphical representation of data showing effects of the selected compounds on cell cycle distribution of CWR22R cells measured by propidium iodide staining of cellular DNA content by fluorescent activated cell sorting. Assay was done twice. Error bars—deviation between two measurements.
Western blot analysis. […] Total protein concentration was determined using Dc Protein Assay (BioRad, Hercules, Calif.). […]

The next data set in a line: Microsomal stability. Particulars: 1 hour incubation with rat microsomes. It counts as in vitro ADME. The procedure: Five hit compounds, representing both the ARTIS and ARTIK categories (c6, c11, c17, c52 and c85), were selected for in vivo tests based on all of the previous assays. Compound c5 was rejected due to very low microsomal stability (<5% after 1 hour incubation with rat microsomes). The toxicity of the compounds was evaluated in a dose escalation assay in which male NIH Swiss mice (n=4) received three sequential intraperitoneal (i.p.) injections of each compound delivered in 3 day intervals. The first dose was 20-fold higher than the in vitro IC50 (20×IC50) for the compound in CWR22R cells recalculated based on mouse weight (see Example 1) and the second and third doses were 50×IC50 and 100×IC50, respectively. On the day after the last injection, half of the mice in each group were sacrificed for gross pathology examination and collection of blood for serum biochemistry assays, which include total protein, glucose, bilirubin, and creatinine levels, activity of liver enzymes, and ion concentrations. The remaining mice were sacrificed and evaluated similarly 7 days after the last compound injection. […] A minor decrease in serum glucose concentration (70-80% of control) was observed on the day after the last compound injection in almost all mice, but glucose levels were normal a week later (data not shown). […]

“Also recorded” adds a separate entry of the source.

Regarding `CCCn1c2ccccc2c2cc(C(C)=O)ccc21` [c52], the “toxicity towards AR-expressing PCa cell lines” value in data set [1] (colony formation, 10 μM, three AR-expressing PCa cell lines) is “different degrees of toxicity; also recorded: kill all PCa cells expressing AR”. In data set [1] (dose-dependent toxicity, by day 7), the “degree of toxicity to PCa cells (killing vs reduced growth)” value is given as “kill practically all of the PCa cells in the culture by day 7”. The “AR protein level in CWR22R cells” value in data set [2] is given as “complete disappearance of AR protein”. For the same compound, the “microsomal stability, compound left” value in the data set “Microsomal stability” came out at 17%.

Values taken from patent US8835447B2, “Method for treating androgen receptor positive cancers” (priority 2009, dated 2014).
